Each structure is given as a SMILES string.

The assay concerns the target T1, KRAS G12C 1-169, his-tagged protein, GDP-loaded (Homo sapiens, UniProt P01116, G12C).
T1 construct: KRAS G12C 1-169, his-tagged protein, GDP-loaded
In words: Biochemical assay: covalent binding to KRAS G12C, analyzed by mass spectrometry. Particulars: percent of KRAS G12C protein covalently bound to test compound; 2 μm protein, room temperature. The procedure: Test compounds were prepared as 10 mM stock solutions in DMSO (Fisher cat# BP-231-100). KRAS G12C 1-169, his-tagged protein, GDP-loaded was diluted to 2 μm in buffer (20 mM Hepes, 150 mM NaCl, 1 mM MgCl2). Compounds were tested for activity as follows:
Compounds were diluted to 50× final test concentration in DMSO in 96-well storage plates. Compound stock solutions were vortexed before use and observed carefully for any sign of precipitation. Dilutions were as follow: • For 100 μM final compound concentration, compounds were diluted to 5000 μM (5 μl 10 mM compound stock+5 μl DMSO and mixed well by pipetting. • For 30 μM final compound concentration, compounds were diluted to 1500 μM (3 μl 10 mM compound stock+17 μl DMSO) and mixed well by pipetting. • For 10 μM final compound concentration, compounds were diluted to 500 μM (2 μl 10 mM compound stock+38 μl DMSO) and mixed well by pipetting. 49 μl of the stock protein solution was added to each well of a 96-well PCR plate (Fisher cat#1423027). 1 μl of the diluted 50× compounds were added to appropriate wells in the PCR plate using 12-channel pipettor. Reactions were mixed carefully and thoroughly by pipetting up/down with a 200 μl multi-channel pipettor. The plate was sealed well with aluminum plate seal, and stored in drawer at room temperature for 24 hrs. 5 μl of 2% formic acid (Fisher cat# A117) in DI H2O was then added to each well followed by mixing with a pipette. The plate was then resealed with aluminum seal and stored on dry ice until analyzed as described below.
The above described assays were analyzed by mass spectrometry according to the following procedure:
The MS instrument is set to positive polarity, 2 GHz resolution, and low mass (1700) mode and allowed to equilibrate for 30 minutes. The instrument is then calibrated, switched to acquisition mode and the appropriate method loaded.
After another 30 minute equilibration time, a blank batch (i.e., buffer) is run to ensure equipment is operating properly. The samples are thawed at 37° C. for 10 minutes, briefly centrifuged, and transfer to the bench top. Wells A1 and H12 are spiked with 1 uL 500 uM internal standard peptide, and the plates centrifuged at 2000×g for 5 minutes. The method is then run and masses of each individual well recorded.
The masses (for which integration data is desired) for each well are pasted into the platemap and exported from the analysis. Masses for the internal standards are exported as well. The data at 50 ppm is extracted for the +19 charge state, and identity of well A1 is assigned using the internal standard spike and integrated. Peak data is exported as a TOF list and the above steps are repeated individually, for the +20, 21, 22, 23, 24, and 25 charge states.

Turning to `C=CC(=O)N1CCN(c2ccc(-c3cc(O)ccc3Cl)cc2)CC1` [Compound 1, 1-(4-(2′-chloro-5′-hydroxybiphenyl-4-yl)piperazin-1-yl)prop-2-en-1-one], the Binding % result is recorded as “++++ (indicates binding activity greater than 30%)”.

For the molecule `C=CC(=O)N1CCN(c2ccc(-c3cc(O)cc(Cl)c3)cc2)CC1` [Compound 2, 1-(4-(3′-chloro-5′-hydroxybiphenyl-4-yl)piperazin-1-yl)prop-2-en-1-one], the Binding % result is “++ (indicates binding activity greater than 10% and up to 20%)”.

For `C=CC(=O)N1CCN(c2ccc(-c3cc(OC)cc(Cl)c3Cl)cc2)CC1` [Compound 3, 1-(4-(2′,3′-dichloro-5′-methoxybiphenyl-4-yl)piperazin-1-yl)prop-2-en-1-one], the Binding % entry is recorded as “+ (indicates binding activity from 5% to 10%)”.

Take `C=CC(=O)N1CCN(c2ccc(-c3cc(O)cc(Cl)c3Cl)cc2)CC1` [Compound 4, 1-(4-(2′,3′-dichloro-5′-hydroxybiphenyl-4-yl)piperazin-1-yl)prop-2-en-1-one]: the Binding % result is “+++ (indicates binding activity greater than 20% and up to 30%)”.

As to `C=CC(=O)N1CCN(c2ccc(-c3cc(O)ccc3CC)cc2)CC1` [Compound 5, 1-(4-(2′-ethyl-5′-hydroxybiphenyl-4-yl)piperazin-1-yl)prop-2-en-1-one], the Binding % result is listed as “++++ (indicates binding activity greater than 30%)”.

In the case of `C=CC(=O)N1CCC(n2ccc(-c3cc(O)ccc3Cl)cc2=O)CC1` [Compound 6, 1-(1-acryloylpiperidin-4-yl)-4-(2-chloro-5-hydroxyphenyl)pyridin-2(1H)-one], the Binding % entry is “++ (indicates binding activity greater than 10% and up to 20%)”.

`C=CC(=O)N1CCN(c2ncc(-c3cc(O)ccc3Cl)cn2)CC1` [Compound 7, 1-(4-(5-(2-chloro-5-hydroxyphenyl)pyrimidin-2-yl)piperazin-1-yl)prop-2-en-1-one]: the Binding % result is “++ (indicates binding activity greater than 10% and up to 20%)”.

On to `C=CC(=O)N1CCN(c2ccc(-c3cc(O)ccc3Cl)cn2)CC1` [Compound 8, 1-(4-(5-(2-chloro-5-hydroxyphenyl)pyridin-2-yl)piperazin-1-yl)prop-2-en-1-one], for which the Binding % result is “++ (indicates binding activity greater than 10% and up to 20%)”.

Take `C=CC(=O)N1CCN(c2ccc(-c3cc(O)ccc3Cl)cc2C#N)CC1` [Compound 9, 4-(4-acryloylpiperazin-1-yl)-2′-chloro-5′-hydroxybiphenyl-3-carbonitrile]: the Binding % result is “++++ (indicates binding activity greater than 30%)”.

On to `C=CC(=O)N1CCN(c2ccc(-c3cc(O)ccc3Cl)c(C(N)=O)c2)CC1` [Compound 10, 4-(4-acryloylpiperazin-1-yl)-2′-chloro-5′-hydroxybiphenyl-2-carboxamide], for which the Binding % result was “+++ (indicates binding activity greater than 20% and up to 30%)”.

In the case of `C=CC(=O)N1CCN(c2ccc(-c3cc(O)ccc3Cl)c(C#N)c2)CC1` [Compound 11, 4-(4-acryloylpiperazin-1-yl)-2′-chloro-5′-hydroxybiphenyl-2-carbonitrile], the Binding % entry is “+++ (indicates binding activity greater than 20% and up to 30%)”.

Consider `C=CC(=O)N1CCC(Cn2ccc(-c3cc(O)ccc3Cl)cc2=O)CC1` [Compound 12, 1-((1-acryloylpiperidin-4-yl)methyl)-4-(2-chloro-5-hydroxyphenyl)pyridin-2(1H)-one], for which the Binding % result was “++ (indicates binding activity greater than 10% and up to 20%)”.

Take `C=CC(=O)N1CCC(Cn2ccc(-c3ccccc3C(F)(F)F)cc2=O)CC1` [Compound 13, 1-((1-acryloylpiperidin-4-yl)methyl)-4-(2-(trifluoromethyl)phenyl) pyridin-2(1H)-one]: the Binding % entry was “+ (indicates binding activity from 5% to 10%)”.

As to `C=CC(=O)N1CCN(c2ccc(-c3cc(O)ccc3Cl)cc2C(N)=O)CC1` [Compound 14, 4-(4-acryloylpiperazin-1-yl)-2′-chloro-5′-hydroxybiphenyl-3-carboxamide], the Binding % result was “+++ (indicates binding activity greater than 20% and up to 30%)”.

On to `C=CC(=O)N1CCN(Cc2ccc(-c3ccccc3C(F)(F)F)cc2)CC1` [Compound 15, 1-(4-((2′-(trifluoromethyl)biphenyl-4-yl)methyl)piperazin-1-yl)prop-2-en-1-one], for which the Binding % result was “+ (indicates binding activity from 5% to 10%)”.

As to `C=CC(=O)N1CCN(Cc2ccc(-c3c(C)ccc4[nH]ncc34)cc2)CC1` [Compound 16, 1-(4-(4-(5-methyl-1H-indazol-4-yl)benzyl)piperazin-1-yl)prop-2-en-1-one], the Binding % entry is “+ (indicates binding activity from 5% to 10%)”.

Turning to `C=CC(=O)N1CCN(Cc2ccc(-c3cc(O)ccc3Cl)cc2)CC1` [Compound 17, 1-(4-((2′-chloro-5′-hydroxybiphenyl-4-yl)methyl)piperazin-1-yl)prop-2-en-1-one], the Binding % result was “++ (indicates binding activity greater than 10% and up to 20%)”.

Regarding `C=CC(=O)N1CCN(Cc2ccc(-c3cc(O)ccc3Cl)c(Cl)c2)CC1` [Compound 18, 1-(4-((2,2′-dichloro-5′-hydroxybiphenyl-4-yl)methyl)piperazin-1-yl)prop-2-en-1-one], the Binding % result was “++ (indicates binding activity greater than 10% and up to 20%)”.

Consider `C=CC(=O)N1CCN(Cc2ccc(-c3c(C)ccc4[nH]ncc34)c(Cl)c2)CC1` [Compound 19, 1-(4-(3-chloro-4-(5-methyl-1H-indazol-4-yl)benzyl)piperazin-1-yl)prop-2-en-1-one], for which the Binding % result is “++ (indicates binding activity greater than 10% and up to 20%)”.

`C=CC(=O)N1CCN(Cc2ccc(-c3cc(O)ccc3Cl)cc2O)CC1` [Compound 20, 1-(4-((2′-chloro-3,5′-dihydroxybiphenyl-4-yl)methyl)piperazin-1-yl)prop-2-en-1-one]: the Binding % result was “+++ (indicates binding activity greater than 20% and up to 30%)”.

In the case of `C=CC(=O)N1CCN(Cc2ccc(-c3ccccc3C(F)(F)F)cc2O)CC1` [Compound 21, 1-(4-((3-hydroxy-2′-(trifluoromethyl)biphenyl-4-yl)methyl)piperazin-1-yl)prop-2-en-1-one], the Binding % result is “+ (indicates binding activity from 5% to 10%)”.

For the molecule `C=CC(=O)N1CCN(c2ccc(-c3c(C)ccc4[nH]ncc34)cc2)CC1` [Compound 22, 1-(4-(4-(5-methyl-1H-indazol-4-yl)phenyl)piperazin-1-yl)prop-2-en-1-one], the Binding % result was “+ (indicates binding activity from 5% to 10%)”.

Take `C=CC(=O)N1CCN(c2ccc(-c3ccc(O)cc3Cl)cc2)CC1` [Compound 23, 1-(4-(2′-chloro-4′-hydroxybiphenyl-4-yl)piperazin-1-yl)prop-2-en-1-one]: the Binding % result is “+ (indicates binding activity from 5% to 10%)”.

Consider `C=CC(=O)N1CCN(c2ccc(-c3cc(O)ccc3Cl)c3cn[nH]c23)CC1` [Compound 24, 1-(4-(4-(2-chloro-5-hydroxyphenyl)-1H-indazol-7-yl)piperazin-1-yl)prop-2-en-1-one], for which the Binding % entry is given as “++++ (indicates binding activity greater than 30%)”.

With `C=CC(=O)N1CCN(c2ccc(-c3c(O)cccc3F)cc2)CC1` [Compound 25, 1-(4-(2′-fluoro-6′-hydroxybiphenyl-4-yl)piperazin-1-yl)prop-2-en-1-one], the Binding % result was “+ (indicates binding activity from 5% to 10%)”.

As for `C=CC(=O)N1CCN(c2ccc(-c3c(C)ccc4[nH]ncc34)c3cn[nH]c23)CC1` [Compound 26, 1-(4-(5′-methyl-1H,1′H-4,4′-biindazol-7-yl)piperazin-1-yl)prop-2-en-1-one], the Binding % entry is “+ (indicates binding activity from 5% to 10%)”.
